These results are taken from patent US4142046A, “Intermediates for the preparation of 7-acyl-3-(substituted triazolylthiomethyl)cephalosporins” (SmithKline Corporation, priority 1976, dated 1979).

One test concerns E. coli 12140. Put plainly: In vivo mouse protection (ED50).
The test system of a further test is Kleb. pneumo. 4200. Put plainly: In vivo mouse protection (ED50). The settings on record: for ED50: Mus musculus.
A further test has as its system Entero. cloacae HH 31254. Put plainly: MIC in vitro. The settings on record: Enterobacter cloacae. It counts as cell-based. As to the method: (§1) The compounds of Formula I have antibacterial activity against both Gram-positive and Gram-negative organisms. Minimum inhibitory concentrations (MIC's) ranged from 0.2 to >200 μg./ml. in in vitro testing. […] Compound numbers corresponding to structures are given in the experimental section.

The next test concerns Salmonella ATCC 12176. As to the kind of experiment: MIC in vitro. It is filed as cell-based. Conditions: ATCC12176. The method, then: as §1
The test system of a further test is S. aureus HH 127. Put plainly: MIC in vitro. It is filed as cell-based. Conditions: Staphylococcus aureus. The method, then:
as §1

For the next test, the system named is Shigella HH 117. As to the kind of experiment: MIC in vitro. It is filed as cell-based. The settings on record: Shigella, HH117, Shigella HH 117. As to the method:
as §1

The test system of the next test is Proteus Morgani 179. Put plainly: MIC in vitro. It counts as cell-based. As to the method: as §1
The next test concerns Strep. faecalis HH 34358. As to the kind of experiment: MIC in vitro. It counts as cell-based. Conditions: for MIC: Enterococcus faecalis, HH34358, Strep. faecalis HH 34358. As to the method: as §1
The next test concerns E. coli HH 33779. Put plainly: MIC in vitro. Conditions: Escherichia coli, HH33779. It is filed as cell-based. The method, then: as §1
The next test concerns Kleb. pneumo. SK 4200. As to the kind of experiment: MIC in vitro. It counts as cell-based. The settings on record: Kleb. pneumo. SK 4200; read-out: MIC in vitro. As to the method: as §1
Test [1] has as its system Entero. aerog. ATCC 13048. Put plainly: MIC in vitro. It is filed as cell-based. The method, then:
as §1

The test system of the next test is Serra. marc. ATCC 13880. As to the kind of experiment: MIC in vitro. It counts as cell-based. As to the method:
as §1

The subject of another test is Pseudo. sp. HH 63. Put plainly: MIC in vitro. It is filed as cell-based. As to the method:
as §1

The next test relates to Kleb. pneumo. SK 1200. As to the kind of experiment: MIC in vitro. Conditions: Kleb. pneumo. SK 1200; for MIC: read-out: MIC in vitro. It counts as cell-based. As to the method: as §1
A further test concerns S. aureus SK 23390. As to the kind of experiment: MIC in vitro. It counts as cell-based. Conditions: for MIC: Staphylococcus aureus. As to the method: as §1
The test system of another test is E. coli SK 12140. Put plainly: MIC in vitro. It is filed as cell-based. Conditions: Escherichia coli. As to the method:
as §1

A further test has as its system S. villaluz. As to the kind of experiment: MIC in vitro. It counts as cell-based. Conditions: read-out: MIC in vitro. The method, then:
as §1

Where [2] appears, read: Escherichia coli, 12140, po, E. coli 12140, p.o.
Setting [3] is: Escherichia coli, 12140, sc, E. coli 12140, s.c.
Where [4] appears, read: SK23390, S. aureus SK 23390, read-out: MIC in vitro.
Where [5] appears, read: SK12140, E. coli SK 12140, read-out: MIC in vitro.

SMILES strings stand for the structures. Converted amounts (≈) assume the structure as drawn. Read-outs that look alike come from different tables or passages of the source.

The ED50 is the midpoint of the dose-response relation. Read a high ED50 as weaker potency. As usually defined, the MIC is the lowest concentration that inhibits growth of the organism. Regarding `N[C@@H](C(=O)NC1C(=O)N2C(C(=O)O)=C(CSc3n[nH]c(CC(=O)O)n3)CS[C@H]12)c1ccccc1` (stereo partly drawn) [VIII, 7-(D-α-Aminophenylacetamido)-3-(5-carboxymethyl-1,2,4-triazol-3-ylthiomethyl)-3-cephem-4-carboxylic acid], the ED50 in the test with E. coli 12140 (setting [2]) was above 50 mg/kg; in the test on E. coli 12140 (setting [3]) it was 1.1 mg/kg; in the test on Kleb. pneumo. 4200 (po, Kleb. pneumo. 4200, p.o.), 39 mg/kg; in the test on Kleb. pneumo. 4200 (sc, Kleb. pneumo. 4200, s.c.), 0.8 mg/kg. In the test on Kleb. pneumo. 4200 (Kleb. pneumo. 4200, s.c.), this molecule registered an ED50 in vivo below 0.78 mg/kg. Further, the MIC in the test with Entero. cloacae HH 31254 (HH31254, Entero. cloacae HH 31254, read-out: MIC in vitro) came to 3.1 mg/L (≈ 6.14 µM); in the test on Salmonella ATCC 12176, 0.8 mg/L (≈ 1.59 µM); in the test on S. aureus HH 127 (HH127, read-out: MIC in vitro), 12.5 mg/L (≈ 24.8 µM); in the test on Shigella HH 117, 3.1 mg/L (≈ 6.14 µM); against Proteus Morgani 179, 200 mg/L (≈ 396 µM); in the test with Strep. faecalis HH 34358 it was 200 mg/L (≈ 396 µM). Moreover, the MIC was 6.3 mg/L (≈ 12.5 µM) in the test on E. coli HH 33779; 1.6 mg/L (≈ 3.17 µM) in the test with Kleb. pneumo. SK 4200; 6.3 mg/L (≈ 12.5 µM) in test [1]; above 200 mg/L with Serra. marc. ATCC 13880; above 200 mg/L in the test on Pseudo. sp. HH 63; 1.6 mg/L (≈ 3.17 µM) with Kleb. pneumo. SK 1200. Further, the MIC in the test on S. aureus SK 23390 (setting [4]) was 25 mg/L (≈ 49.5 µM); with E. coli SK 12140 (setting [5]), 3.1 mg/L (≈ 6.14 µM).
For the molecule `CCOC(=O)c1nn[nH]c1SCC1=C(C(=O)O)N2C(=O)C(NC(=O)[C@H](N)c3ccc(O)cc3)[C@H]2SC1` (stereo partly drawn) [I, 7-(D-α-Amino-4-hydroxyphenylacetamido)-3-(4-carbethoxy-1,2,3-triazol-5-ylthiomethyl)-3-cephem-4-carboxylic acid], the values for the ED50 in the test on E. coli 12140 (setting [2]) and in the test on E. coli 12140 (setting [3]) were above 200 mg/kg and 100 mg/kg, respectively. Also, the MIC in the test on Entero. cloacae HH 31254 (HH31254, read-out: MIC in vitro) was 12.5 mg/L (≈ 23.4 µM); with S. villaluz, 200 mg/L (≈ 374 µM); with Salmonella ATCC 12176, 12.5 mg/L (≈ 23.4 µM); against Shigella HH 117 it was 12.5 mg/L (≈ 23.4 µM); in the test with Proteus Morgani 179, above 200 mg/L; against Strep. faecalis HH 34358, 200 mg/L (≈ 374 µM). The MIC was 25 mg/L (≈ 46.8 µM) against E. coli HH 33779, above 200 mg/L in the test with Serra. marc. ATCC 13880, above 200 mg/L in the test on Pseudo. sp. HH 63 and 25 mg/L (≈ 46.8 µM) in the test with S. aureus SK 23390 (setting [4]). In addition, the MIC in vitro with Strep. faecalis HH 34358 (Strep. faecalis HH 34358) came out at 100 mg/L (≈ 187 µM); with S. aureus SK 23390 (S. aureus SK 23390), 13 mg/L (≈ 24.3 µM).
For `N[C@@H](C(=O)NC1C(=O)N2C(C(=O)O)=C(CSc3[nH]nnc3C(=O)O)CS[C@H]12)c1ccccc1` (stereo partly drawn) [V, 7-(D-α-Aminophenylacetamido)-3-(4-carboxy-1,2,3-triazol-5-ylthiomethyl)-3-cephem-4-carboxylic acid], the ED50 is above 200 mg/kg in the test with E. coli 12140 (setting [2]); 25 mg/kg in the test on E. coli 12140 (setting [3]); above 50 mg/kg in the test with Kleb. pneumo. 4200 (po, Kleb. pneumo. 4200, p.o.); above 50 mg/kg in the test with Kleb. pneumo. 4200 (sc, Kleb. pneumo. 4200, s.c.). Further, the MIC in the test on S. villaluz was 200 mg/L (≈ 408 µM); in the test on S. aureus HH 127 (HH127, read-out: MIC in vitro), 12.5 mg/L (≈ 25.5 µM); against Proteus Morgani 179 it was above 200 mg/L; against Strep. faecalis HH 34358, 200 mg/L (≈ 408 µM); with E. coli HH 33779 it was 25 mg/L (≈ 51 µM); in test [1], 25 mg/L (≈ 51 µM). Besides, the MIC was above 200 mg/L in the test with Serra. marc. ATCC 13880; above 200 mg/L with Pseudo. sp. HH 63; 3.1 mg/L (≈ 6.32 µM) in the test with Kleb. pneumo. SK 1200; 19 mg/L (≈ 38.7 µM) in the test on S. aureus SK 23390 (setting [4]); 12.5 mg/L (≈ 25.5 µM) with S. aureus SK 23390 (SK23390, read-out: MIC in vitro); 12.5 mg/L (≈ 25.5 µM) with E. coli SK 12140 (SK12140, read-out: MIC in vitro, E. coli SK 12140). Besides, in the test on E. coli SK 12140 (setting [5]), the MIC came to 9 mg/L (≈ 18.3 µM). Also, in the test with Kleb. pneumo. SK 1200, the MIC in vitro came out at 4.7 mg/L (≈ 9.58 µM).
Consider `NC(=O)c1nn[nH]c1SCC1=C(C(=O)O)N2C(=O)C(NC(=O)[C@H](N)c3ccc(O)cc3)[C@H]2SC1` (stereo partly drawn) [IV, 7-(D-α-Amino-4-hydroxyphenylacetamido)-3-(4-carbamoyl-1,2,3-triazol-5-ylthiomethyl)-3-cephem-4-carboxylic acid], for which the ED50 with E. coli 12140 (setting [2]) is 35 mg/kg; with E. coli 12140 (setting [3]), 5.2 mg/kg; in the test on Kleb. pneumo. 4200 (po, Kleb. pneumo. 4200, p.o.), 8.2 mg/kg; with Kleb. pneumo. 4200 (sc, Kleb. pneumo. 4200, s.c.), below 3 mg/kg. Also, the MIC in the test with Salmonella ATCC 12176 was 1.6 mg/L (≈ 3.16 µM); with S. aureus HH 127 (HH127, S. aureus HH 127, read-out: MIC in vitro) it was 3 mg/L (≈ 5.93 µM); against Shigella HH 117, 1.6 mg/L (≈ 3.16 µM); against Proteus Morgani 179, above 200 mg/L; against Strep. faecalis HH 34358 it was 25 mg/L (≈ 49.5 µM); with E. coli HH 33779, 6 mg/L (≈ 11.9 µM). Besides, the MIC in the test on Kleb. pneumo. SK 4200 was 6 mg/L (≈ 11.9 µM); in [1] it was 50 mg/L (≈ 98.9 µM); in the test on Serra. marc. ATCC 13880, above 200 mg/L; in the test on Kleb. pneumo. SK 1200 it was 1.6 mg/L (≈ 3.16 µM); in the test on S. aureus SK 23390 (setting [4]), 3 mg/L (≈ 5.93 µM); in the test on E. coli SK 12140 (setting [5]), 6 mg/L (≈ 11.9 µM).
